Data reported in patent US20190307820A1, “COMPOSITIONS AND METHODS OF USING STAT1/3 INHIBITORS WITH ONCOLYTIC HERPES VIRUS” (priority 2016, published 2019).

Legend:
[1] = tested on: pSTAT1 (Tyr701); experiment: Western blot of STAT 1 / pSTAT1 (Tyr701) in BV2 microglia cells; type: cell-based, mouse
Experimental: BV2 cells were pre-treated with vehicle or C16 (1 μM) for 2 hours and then incubated with vehicle or oHSV-1 (G207) at an MOI of 1 or oHSV-1 and C16 combination for 24 hours. Total protein was harvested and subjected to western blot assay. β-actin expression was used for loading control (means±SE).
BV2 cells were treated with either vehicle or Lps (1 μg/ml) or Lps (1 μg/ml) with C16 (1 μM) for 24 hours. Total protein was harvested and subjected to western blot assay. β-actin expression was used for loading control (means±SE).
Total protein was harvested with sample buffer (125 mM Tris-HCL, 50% Glycerol, […] and 5% 2-mercaptoethanol) and boiled for 5 minutes. Protein samples were subjected to SDS-PAGE (8% gel), transferred to nitrocellulose membranes and blocked in 5% nonfat milk (Bio Rad) in TBS-Tween 20 (TBS-T) for 1 hour at room temperature. The membranes were then incubated with primary antibody against β-actin at 1:1000 (Cell Signaling, Danvers, Mass.) or anti-STAT1 antibody at 1:1000 (Cell Signaling, Danvers, Mass.) or anti-STAT3 antibody at 1:1000 (Cell Signaling, Danvers, Mass.) or anti-phospho STAT1 antibody (Tyr701) at 1:1000 (Cell Signaling, Danvers, Mass.) or anti-phospho STAT3 antibody (Tyr705) at 1:1500 (Cell Signaling, Danvers, Mass.) or anti-phosphor-eIF2a antibody (ser51) at 1:1000 (Cell Signaling, Danvers, Mass.) or anti-ICP27 antibody at 1:1000 (Abcam, Cambridge, Mass.) or anti-ICP4 antibody at 1:750 (Abcam, Cambridge, Mass.) for overnight at 4° C. The membranes were washed the next day with TBS-T three times and incubated with corresponding secondary antibody at 1:3000 (Perkim Elmer, Boston, Mass.), for 1 hour at room temperature. Membranes were washed with TBS-T three times before visualization using ECL reagent (Perkim Elmer, Boston, Mass.) and VersaDoc imaging system (Bio-Rad). Band density was measured by using ImageJ software (NIH, Bethesda, Md.).

[2] = molecular target: T1, pSTAT3 (Homo sapiens, UniProt P40763); experiment: Western blot of phosphorylated STAT3 in harvested U87 tumour tissues; type: in vivo, mice; conditions: HrR3 with 50 mg/kg or 100 mg/kg NF i.p., day 10
T1 construct: from tissue; host or cells: subcutaneous U87 tumours harvested from mice
Experimental: FIGS. 19A-C show STAT inhibition by the combination of NF and oHSV-1. FIG. 19A and FIG. 19B, U87 cells (A) or CT26 cells (B) were treated with the indicated concentrations of HrR3 or NF or a combination. Total protein was extracted after 24 hours and subjected to western blot analysis. Band intensity was measured using Image J software and normalized to β-actin. Samples were run in triplicate and data are as means±S.E. Statistically significant differences are indicated by P<0.05 or P<0.01. FIG. 19C, Mice subcutaneously bearing U87 tumors were intratumorally injected with a single dose of HrR3 virus (1×10^6 PFU) and/or peritoneally injected doses of NF as indicated. Tumors were harvested on day 10 post treatment and total protein was extracted from a mouse of each treatment group and subjected to western blot analysis in triplicate. Results are reported as means±S.E.
To further confirm that NF is able to inhibit STAT activation in vivo, subcutaneously implanted U87 tumours were treated with either HrR3 alone or in combination with 50 mg/kg NF or 100 mg/kg NF. Expression levels of phosphorylated STAT1/3 in harvested tumour tissues were measured by western blotting.

[3] = tested on: 9L cells; experiment: MTT cytotoxicity assay, 9L cells; type: cell-based; conditions: 72 hours, read-out: Inhibitory concentration 50% (IC50)
Experimental: FIGS. 1A-1B are graphs that show an anti-tumor effect of nifuroxazide. (FIG. 1A) Cells were treated with indicated concentration of nifuroxazide for 72 hours. Cytotoxicity was measured by using MTT assay. (FIG. 1B) Subcutaneously U87 tumor bearing mice were peritoneally injected with indicated doses of nifuroxazide. Tumor size was measured using calipers at day 7 post nifuroxazide treatment.
In this example, the antitumor effect of nifuroxazide is evaluated in different tumor cells. Cells were treated with nifuroxazide for 72 hours (FIG. 1A). […] To verify the anti-tumor efficacy of nifuroxazide in vivo, animals with subcutaneous U87 tumor implants were injected in the peritoneum with vehicle, 1 mg/kg nifuroxazide and 50 mg/kg nifuroxazide. […] Tumor volume was reduced around 25% and 60% after 7 days treatment with 1 mg/kg nifuroxazide and 50 mg/kg nifuroxazide respectively (FIG. 1B).
Cells were seeded in a 96-well plate at a density of 1×104 (U87). After overnight incubation, cells were treated with only vehicle or indicated MOI of virus or indicated concentration of drugs or reagents. After 2 to 3 days of treatment cell viability was measured by MTT assay (Sigma, Canada) according to the manufacturer's instruction. […] After overnight incubation with lysis buffer, cell viability was measured at 595 nm using a plate reader (Envision 2103 Multilabel reader, Perkin Elmer).

T1 sequence (P40763 whole entry): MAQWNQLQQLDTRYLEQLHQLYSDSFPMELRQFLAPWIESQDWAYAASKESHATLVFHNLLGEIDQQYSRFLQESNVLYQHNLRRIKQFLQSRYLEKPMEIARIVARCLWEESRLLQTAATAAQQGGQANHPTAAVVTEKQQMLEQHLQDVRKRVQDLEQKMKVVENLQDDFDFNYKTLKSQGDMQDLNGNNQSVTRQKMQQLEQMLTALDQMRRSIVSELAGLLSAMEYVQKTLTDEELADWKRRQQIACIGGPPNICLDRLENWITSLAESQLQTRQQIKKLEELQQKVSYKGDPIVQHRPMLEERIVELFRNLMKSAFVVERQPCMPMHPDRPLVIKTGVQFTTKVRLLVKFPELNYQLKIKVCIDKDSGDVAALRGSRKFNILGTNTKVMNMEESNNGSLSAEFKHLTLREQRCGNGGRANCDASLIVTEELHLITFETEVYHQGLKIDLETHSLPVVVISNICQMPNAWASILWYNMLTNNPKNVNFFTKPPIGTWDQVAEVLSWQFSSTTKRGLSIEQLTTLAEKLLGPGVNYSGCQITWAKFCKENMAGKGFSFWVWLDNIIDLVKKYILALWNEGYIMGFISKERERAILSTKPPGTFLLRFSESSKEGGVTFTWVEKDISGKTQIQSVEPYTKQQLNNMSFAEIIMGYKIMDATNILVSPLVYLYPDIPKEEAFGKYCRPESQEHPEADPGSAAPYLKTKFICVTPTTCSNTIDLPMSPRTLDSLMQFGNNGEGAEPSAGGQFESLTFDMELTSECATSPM

SMILES | upregulation of pSTAT1 (Tyr701) induced by oHSV-1 ([1]; C16 1 μM, G207 MOI of 1, 24 hours) | expression level of STAT 1 ([1]; G207 infected microglial cells) | STAT 1 phosphorylation, LPS treated ([1]; Lps 1 μg/ml, C16 1 μM, 24 hours) | virally induced upregulation of pSTAT3 [2] | IC50 [3]
O=C1Nc2ccc3ncsc3c2/C1=C/c1c[nH]cn1 [C16, 6,8-Dihydro-8-(1H-imidazol-5-ylmethylene)-7H-pyrrolo[2,3-g]benzothiazol-7-one] | significantly suppress the upregulation | reduced after C16 treatment | inhibition in STAT 1/3 phosphorylation |  | 
O=C(N/N=C/c1ccc([N+](=O)[O-])o1)c1ccc(O)cc1 [nifuroxazide, Benzoic acid, 4-hydroxy-, [(5-nitro-2-furanyl)metylene]hydrazide] |  |  |  | inhibited in a dose-dependent fashion | ~27 µM
